Earlier results on one compound are cited in patent publication US20140271726A1, “COMPOSITIONS AND METHODS FOR […] SUSCEPTIBILITY TO ANTIVIRAL AGENTS” (WISCONSIN ALUMNI RESEARCH FOUNDATION, priority 2013, published 2014).

The data set concerns HCV genotype 3. The conditions noted are these: genotype 3 patient, short duration monotherapy.

For the compound `C/C=C/C[C@@H](C)[C@@H](O)[C@H]1C(=O)N[C@@H](CC)C(=O)N(C)[C@H](C)C(=O)N(CC)[C@@H](C(C)C)C(=O)N[C@@H](C(C)C)C(=O)N(C)[C@@H](CC(C)C)C(=O)N[C@@H](C)C(=O)N[C@H](C)C(=O)N(C)[C@@H](CC(C)C)C(=O)N(C)[C@@H](CC(C)C)C(=O)N(C)[C@@H](C(C)C)C(=O)N1C` [alisprovir], the clinical outcome is reported as “cured”.
